In one assay the test system is Ramos cells. Kind of assay: Calcium flux assay, anti-IgM stimulated Ramos cells. It counts as cell-based. As to conditions: Homo sapiens, IgM-induced calcium influx, read-out: Ramos Ca Flux. As for the experimental part:
Calcium flux fluorescence-based assays were performed in aFDSS7000EX (Hamamatsu Photonics) fluorometric imaging plate reader according to manufacturer instructions. Compounds to be assayed were dissolved in DMSO, diluted to appropriate concentrations in Ca^2+ buffer ranging from 0 to 10 μM (at a dilution factor of 0.1), added 5 μl (6 X) to each well (the final DMSO concentration was 0.1% in each well). Then 12.5 μL 2× dye loading solution (Fluo-4 NW Calcium Assay Kits, Invitrogen) was added per well of a 384-well plate. Afterwards, actively growing Ramos cells (ATCC) in RPM1640 medium supplemented with 10% FBS (Invitrogen) were washed and re-plated in assay buffer (from Fluo-4 NW Calcium Assay Kits, Invitrogen) to approximately 6.4×10^6/ml (80000 cells/12.5 μL in 384-well plates). The plates were incubated at 37° C. for 30 minutes, then at room temperature for an additional 30 minutes. The plates were now ready to be used in an experiment. Immediately after the transfer and a 10-s recording of baseline fluorescence, the compound treated cells were stimulated with a goat anti-human IgM antibody ([…]; Jackson Immuno Research) and read in a FDSS for 240 seconds. Difference between the signal and that at baseline, designated adjusted relative fluorescence unit, was calculated by using a custom Excel (Microsoft, Redmond, Wash.) template to determine IgM-induced calcium influx and its inhibition by compounds. The table below show the result.

Another assay deals with LYN (Homo sapiens (Human), UniProt P07948). Kind of assay: LYN kinase assay (HTRF). As to conditions: [ATP]=20 μM, LYN=0.12 nM. It counts as biochemical. As for the experimental part:
Btk Kinase Assay and Other Kinases Assay Btk kinase activity was determined using a homogenous time resolved fluorescence (HTRF) methodology. Measurements were performed in a reaction volume of 15 μL using 384-well assay plates. Kinase enzyme, inhibitor, ATP and 1 μM peptide substrate were incubated in a reaction buffer compose of Hepes50 mM (pH7.0), NaN3 0.02%, BSA 0.01%, Orthocanadate 0.1 mM. After one hour, the kinase reaction was quenched by the addition of E t-labeled antibody and XL-665 in 1×Detection buffer containing 60 mM EDTA (Cisbio), and the mixture was allowed to incubate for one hour. The HTRF signal was measured on a multimode plate reader (EnVision Multilabel Reader, Perkin Elmer) with an excitation wavelength (λEx) of 330 nm and detection wavelengths (λEm) of 615 and 665 nm. Activity was determined by the ratio of the fluorescence at 665 nm to that at 615 nm. For each compound, enzyme activity as measured at various concentrations of compound, Negative control reactions were performed in the absence of inhibitor in two replicates and eight no enzyme controls were used to determine baseline fluorescence levels. IC50s were obtained according to the equation: […] For LYN assay, [ATP]=20 μM, LYN=0.12 n M. For LCK assay, [ATP]=20 μM, LCK=0.2 nM. For BLK assay, [ATP]=20 μM, BLK=0.6 n M.

From US10793566B2, “Bruton's tyrosine kinase inhibitors” (Zibo Biopolar Changsheng Pharmaceutical Co. Ltd., priority 2016, dated 2020) come the findings set out here.

Molecules are shown by their SMILES.

Chain of LYN (P07948 whole entry, species assumed): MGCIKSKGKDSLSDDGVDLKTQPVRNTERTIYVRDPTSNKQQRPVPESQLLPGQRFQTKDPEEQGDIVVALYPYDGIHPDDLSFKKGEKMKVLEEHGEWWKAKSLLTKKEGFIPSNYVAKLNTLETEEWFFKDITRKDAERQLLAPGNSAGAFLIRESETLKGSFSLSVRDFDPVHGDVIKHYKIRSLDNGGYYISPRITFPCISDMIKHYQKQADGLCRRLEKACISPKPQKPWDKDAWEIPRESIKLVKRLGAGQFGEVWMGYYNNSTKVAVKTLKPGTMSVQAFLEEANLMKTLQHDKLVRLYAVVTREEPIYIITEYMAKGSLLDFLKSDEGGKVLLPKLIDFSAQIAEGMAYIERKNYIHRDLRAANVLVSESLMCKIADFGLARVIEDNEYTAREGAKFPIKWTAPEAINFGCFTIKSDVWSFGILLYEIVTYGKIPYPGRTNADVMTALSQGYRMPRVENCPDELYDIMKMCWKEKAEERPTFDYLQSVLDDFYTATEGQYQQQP

On to `C=CC(=O)N1CC[C@@H](n2nc(-c3ccc(Oc4ccccc4)cc3)c3cnccc32)C1` [Example 1, (R)-1-(3-(3-(4-phenoxyphenyl)-1H-pyrazolo[4,3-c]pyridin-1-yl)pyrrolidin-1-yl)prop-2-en-1-one], for which the results for the IC50 with Ramos cells and on LYN were 10 to 100 nM and not below 10000 nM, respectively.
